Results taken from patent publication US20250049927A1, “MODIFIED OLIGONUCLEOTIDE-DRUG CONJUGATE AND USE THEREOF” (INTEROLIGO CORPORATION., priority 2021, published 2025).

Assays:
[1] = tested on: BxPC-3 pancreatic cancer cell lines; assay: Pancreatic cancer cell growth inhibition, WST assay; assay type: cell-based; details: BxPC-3, 72 hours treatment, absorbance 450 nm
Procedure: The in vitro anticancer efficacy of the modified oligonucleotide-drug conjugates was verified using pancreatic cancer cell lines. Pancreatic cancer cell lines (BxPC-3) were treated with the above-described examples and comparative examples at concentrations of 0, 0.01, 0.1, 1, 10, 100, 500 and 1000 μM, and the specific IC50 measurement method and measurement results are as follows.
All cell lines were cultured in a 5% CO2 incubator at 37° C. The BxPC-3 pancreatic cancer cell lines were cultured using a medium containing 10% FBS and 1% antibiotics put into ATCC modified RPMI-1640 (Thermo Scientific, USA). The medium was replaced once every 2-3 days, and passage-cultured at a time when about 70-90% of a culture dish was filled with the cells. First, the cells were washed with PBS, then 0.05% Trypsin-EDTA was added and cultured at 37° C. for 2 minutes, and then a new medium was added to inactivate trypsin. The cells were separated from trypsin and medium using a centrifuge, then another new medium was added and passaged at a ratio of 1:4, followed by culturing the same. All cells were periodically checked for contamination by mycoplasma using a kit (Intron, Korea), and in vitro efficacy evaluation experiments were conducted using only cells in which contamination was not detected.
Using WST reagent (Dongin LS, Korea), an inhibitory effect on pancreatic cancer cell growth by drug treatment was confirmed and IC50 was measured. An orange coloring substance called formazan is produced in WST by mitochondrial dehydrogenase within cells, which is effective only in living cells. The specific test method is as follows.
The cells cultured by the above-described method were dispensed by 2×10^4 into each well of a 96-well culture vessel and cultured for 24 hours. The medium of the cells attached to the culture vessel was replaced with an ATCC modified RPMI-1640 medium containing 5% FBS, and samples of the above-described modified oligonucleotide-drug conjugates (Examples 1-7 and 9-12, and Comparative Example 1-7, respectively) were treated at concentrations of 0, 0.01, 0.1, 1, 10, 100, 500 and 1000 μM. After 72 hours, 10 μl of WST reagent was added to each well and reacted for 2 hours. The produced formazan was measured with an absorbance at 450 nm using a Glomax plate meter (Promega, USA), and IC50 was evaluated according to the protocol in the device. IC50 evaluation results and graphs illustrating the same are shown in Table 2 below and FIGS. 19 to 27 (in Table 2, M=Gemcitabine, and N=5-FdU).

in vivo = details: male, Sprague-Dawley, rat, iv, 2 mg/kg
Procedure: Specifically, Sprague-Dawley male rats (8 weeks old, purchased from Youngbio) were acclimatized for 1 week in the animal room of the Catholic University Songsim Campus, and then pharmacokinetic experiments were performed. Rats were induced with isoflurane, an inhalation anesthetic, and PE50 (polyethylene tubing, Clay Adams, Becton Dickinson, NJ, USA) was inserted into the carotid (for blood collection) and jugular vein (for drug administration), followed by suturing with suture, and then end portions thereof were fixed to the back of the neck. During the surgery, anesthesia was maintained using ether, and about 0.5 mL of physiological saline solution containing heparin (20 units/mL) was injected to prevent blood from coagulating in the cannula. After completing the surgery, each rat was placed in a metabolic cage and allowed to fully recover from the anesthetic (for 4-5 hours). Then, the rats were divided into three groups of a group administered with Example 9 (IO176) alone (n=6), and a group administered with MMAE alone (n=7), and a group administered with gemcitabine alone (n=6), and each sample (Example 9, MMAE alone, gemcitabine alone) was administered into the rats. All of Example 9, MMAE and gemcitabine were dissolved in physiological saline at 2 mL per kg of body weight and administered into the jugular vein at doses of 40 mg/kg, 4 mg/kg and 2 mg/kg, respectively. When collecting blood, in order to prevent gemcitabine in 0.2 mL of blood from being converted into metabolites by cytidine deaminase, a light-shielding Eppendorf tube was prepared in which 2 μL of a solution containing tetrahydrouridine (hereinafter referred to as THU), a cytidine deaminase inhibitor, dissolved in distilled water at a concentration of 10 mg/mL was added in advance. […] Immediately after completing the blood collection, the plasma that had been stored in an ice-bath was quickly centrifuged at 4° C., and 100 μL of the plasma was dispensed into the light-shielding Eppendorf tube. The dispensed plasma was quickly stored in an ice-bath and maintained at −80° C. until LC-MS/MS analysis was performed. After collection of blood from the carotid, the rats were euthanized in a CO2 gas chamber.
• Analysis equipment: Agilent 1290 series HPLC, Qtrap 5500 LC-MS/MS • Detector: Tandem mass spectrometer (triple quadrouple type) • Ion source: Electrospray ionization (positive ion mode) • Desolvation temperature: 500° C. • Nebulizing gas: Nitrogen, Collision gas: Nitrogen • Quantitation: MRM (multiple reaction monitoring) mode • Stationary phase: Hypersil gold C18 column (2.1×100 mm, 1.9 μm, Thermo) Fisher Scientific Inc., Boston, USA) • Stationary phase temperature: 40° C. • Mobile phase: Distilled water (A) and acetonitrile (B) respectively containing 0.1% formic acid (95:5, v/v) (see [Table below) • Flow rate: 0.22 mL/min • Mass parameters: See [Table 8] below (CE: Collision energy)
Each of gemcitabine and dFdU standard product was dissolved in distilled water to prepare 400 μg/mL and 700 μg/mL of storage solutions and store them frozen. Then, the storage solutions were diluted with tertiary distilled water to prepare working solutions so that the concentrations were 0.200, 0.400, 0.800, 2.00, 10.0 and 40.0 μg/mL, respectively, followed by storing them in a refrigerator. 5′-Deoxy-5-fluorocytidine, an internal standard (IS), was dissolved in acetonitrile to prepare 50 ng/mL of working solution. The working solution of gemcitabine and dFdU was added to rat blank plasma containing THU to prepare standard plasma samples so that the plasma concentrations of gemcitabine and dFdU were 10, 20, 40, 100, 500 and 2000 ng/mL, respectively.
150 μL of 5′-Deoxy-5-fluorocytidine (50 ng/mL), the internal standard dissolved in acetonitrile, was added to 20 μL of rat plasma, and vortexed for 10 minutes, followed by centrifuging at 14,000 rpm at 4° C. for 5 minutes.

Compound | IC50 [1] | other results
Example 1: paclitaxel conjugated to U of GGTGGTGGTGGUMGTGGTGGTGGTGG (SEQ ID NO: 4), M=Gemcitabine; linker -acrylamide-C6-NH-succinic acid- (DNA GGTGGTGGTGGNNGTGGTGGTGGTGG; paclitaxel via linker; gemcitabine at M; modified_base 12 OTHER; deoxyuridine(dU); modified_base 13 OTHER; Gemcitabine) | 2210 nM | 
Comparative Example 3 (GGTGGTGGTGGTNGTGGTGGTGGTGG; paclitaxel via acrylamide-C6-NH-succinic acid linker; modified_base 13 OTHER; deoxyuridine(dU)-acrylamide-C6-NH2) | 40 nM | 
Comparative Example 1: control aptamer GGTGGTGGTGGTTGTGGTGGTGGTGG (SEQ ID NO: 1) | 89900 nM | 
Example 2 (GGTGGTGGTGGNTNTGGTGGTGGTGG; paclitaxel via acrylamide-C6-NH-succinic acid linker; modified_base 12 OTHER; deoxyuridine(dU); modified_base 14 OTHER; gemcitabine) | 230 nM | 
Example 6: paclitaxel conjugated to U of GGTGGTGGTGGTUGTGGTGGTGGMGG (SEQ ID NO: 9), M=Gemcitabine; linker -acrylamide-C6-NH-succinic acid- (DNA GGTGGTGGTGGTNGTGGTGGTGGNGG; paclitaxel via linker; gemcitabine at M; modified_base 13 OTHER; deoxyuridine(dU); modified_base 24 OTHER; gemcitabine) | 140 nM | 
Nc1ccn([C@@H]2O[C@H](CO)[C@@H](O)C2(F)F)c(=O)n1 [Gemcitabine, 2′,2′-difluoro-2′-deoxycytidine] |  | Vd (in vivo; in vivo): 2.73 ± 1.22 L/kg; AUC(0-inf) (in vivo; plasma): 7500 ng·h/mL; AUC(0-t) (in vivo; plasma): 7300 ng·h/mL; MRT (in vivo; plasma): 5.7 h; clearance (in vivo; plasma): 4.77 ± 1.43 mL/min/kg; half-life (in vivo; plasma): 6.8 ± 2.78 h
Example 11: DM1 conjugated to U of GGTGGTGGTGGMUGMGGTGGTGGTGG (SEQ ID NO: 8), M=Gemcitabine; linker -acrylamide-C6-NH-SMCC- (DNA GGTGGTGGTGGNNGNGGTGGTGGTGG; gemcitabine nucleotides; DM1 via SMCC linker; modified_base 13 OTHER; deoxyuridine(dU); modified_base 12 OTHER; gemcitabine; modified_base 15 OTHER) | 26700 nM | 
Example 3 (GGTGGTGGTGGTNNTGGTGGTGGTGG; paclitaxel via acrylamide-C6-NH-succinic acid linker on U; modified_base 13 OTHER; deoxyuridine(dU); modified_base 14 OTHER; gemcitabine) | 1000 nM | 
Example 7 (GGTGGTGGTGGTTGNGGTGGTGGNGG; paclitaxel via acrylamide-C6-NH-succinic acid linker on U; modified_base 15 OTHER; deoxyuridine(dU); modified_base 24 OTHER; gemcitabine) | 110 nM | 
Comparative Example 6: DM1 conjugated to U of GGTGGTGGTGGTUGTGGTGGTGGTGG (SEQ ID NO: 3); linker -acrylamide-C6-NH-SMCC- (DNA ggtggtggtggtngtggtggtggtgg; DM1 via acrylamide-C6-NH-SMCC linker; modified_base 13 OTHER; deoxyuridine(dU)) | 3010 nM | 
Comparative Example 2 (GGTGGTGGTGGTTGNGGTGGTGGTGG; paclitaxel conjugate; modified_base 15 OTHER; deoxyuridine(dU)-acrylamide-C6-NH2) | 4590 nM | 
